Where two headings read alike, the source gives them in different places.
Columns and labels:
[1] = Example 8: single-dose study in healthy human subjects 3-16 mg/kg (PK); type: in vivo; details: for half-life / AUC(0-t) / AUC(0-inf) / Cmax / Tmax: male, human, plasma; for AUC(0-t) / Cmax / Tmax: mean of 3 subjects
Description: Example 8 was a double-blind, placebo-controlled single dose-escalating study in healthy subjects. Men between the ages of 18-45 years qualified to participate if they were able to voluntarily give consent and had no clinically significant abnormal findings at the screening evaluation. Specifically, subjects had blood pressure in the normal range, ECG and clinical laboratory values within normal limits, tested negative for drugs of abuse and had not recently donated blood. Subjects were also HIV, Hepatitis B, and Hepatitis C negative and agreed to use an approved method of contraception during the study.
The objectives of this study were to assess the safety, tolerability, and pharmacokinetics of ascending single doses of Compound 1 compared to placebo. Additionally, dose proportionality and pharmacodynamics of Compound 1 were assessed. Four doses of Compound 1 (3, 6, 10, and 16 mg/kg), in capsule form, were evaluated in this study. Following screening, subjects in a given cohort were randomly assigned to receive either Compound 1 or placebo. In the first cohort, 3 subjects received […] and 2 received placebo; in each of the subsequent remaining 3 cohorts, 3 subjects received the next higher dose of Compound 1 and 1 received placebo. Subjects were dosed and then confined to the clinical research unit for 24 hours to conduct safety and pharmacokinetic assessments. Subjects were released from the clinic on Day 2 and returned daily for follow-up visits for 5 days post-dosing.
All 12 subjects who received a dose of Compound 1 were included in the analysis of pharmacokinetic parameters. All 17 subjects enrolled in the study were included in the analysis of pharmacodynamics.
Blood samples for determination of total (free and iron bound complex) plasma Compound 1 concentrations were collected on Day 1 at pre-dose (within 60 minutes prior to dose administration) and then at 0.25, 0.5, 0.75, 1, 1.5, 2, 2.5, 3, 3.5, 4, 8, 12 hours post-dose; on Day 2 at 24 and 36 hours post-dose; on Day 3 at 48 hours post-dose, on Day 4 at 72 hours post-dose; and on Day 5 at 96 hours post-dose.
Total urine collection for pharmacokinetic and pharmacodynamic assessment was performed at pre-dose and then for intervals 0-4, 4-8, 8-12, 12-24 hours post-dose. Collection of total urine for 24 hours post-dose for pharmacokinetic analysis was complete for all subjects who received a dose of Compound 1. It was noted, however, that Subject R105 (placebo) voided into the toilet once (at 3 minutes post-dose) during the 0-4 hour post-dose urine collection interval.

[2] = tested on: patients with transfusional iron overload; assay: Example 11: efficacy study, serum ferritin; type: in vivo, human
Experimental: The goal of this experiment was to: 1. evaluate the safety and tolerability based on clinical assessments of two doses (16 and 32 mg/kg/d) of Compound 1 when administered daily for 24 weeks to patients with transfusional iron overload; 2. identify a differential response between dose groups in liver iron concentration determined by magnetic resonance imaging (MRI) after 24 weeks of dosing; and 3. assess the safety and efficacy activity of Compound 1 when administered daily for up to 96 weeks.
This experiment is an open-label, randomized study of two dose levels (16 and 32 mg/kg/d) of Compound 1 administered once daily for 24 weeks to eligible patients with transfusional iron overload requiring chelation therapy, with a dosing extension of 72 additional weeks.
Patients were assigned to one of two strate: “high” or “low” transfusion burden based on the average iron intake of the six transfusion sessions. Patients within each transfusion burden groups were randomized to one of two Compound 1 treatment arms: 16 mg/kg/d (16 mpk) or 32 mg/kg/d (32 mpk). The stratification followed by randomization to treatment arms helps to ensure an equal distribution of patients with “high” and “low” transfusion burdens to the high or low dose of Compound 1. Each treatment arm received one dose of Compound 1 daily for 24 weeks.
At the conclusion of the 24 week dosing period, patients who qualify and consent to continue treatment continued for an additional 72 weeks of Compound 1 dosing.
The inclusion of 25 patients in each treatment group provided a statistical power of 0.80 to detect, within 6 months, an LIC difference (normalized for initial LIC) of 3 mg/g dry weight between the two dose groups as determined by MRI. Baseline characteristics between dose groups were compared using Fisher extract test or Wilcoxon rank sum test as appropriate. The change in baseline to week 12, 24, and 72 values for all pharmacodynamics parameters were analyzed by an ANCOVA model with main effect for treatment group with baselines value for the corresponding parameters and transfusion burdon (iron input) during the study and baseline liver iron concentration as covariates comparing the two active treatment groups. T2* values were natural log transformed and summarized as the geometric mean (the antilog of the mean of the log data) plus or minus the co-efficient of variation (CV) defined as square root of eMSE where MSE is defined as the mean square error and subject to ANCOVA setting the p value as the threshold for statistical significance at 0.05 (confidence level of 95%).

[3] = single oral dose 10 mg/kg, mean
[4] = single oral dose 16 mg/kg, mean

COCCOCCOCCOc1cccc(C2=N[C@@](C)(C(=O)O)CS2)c1O [Compound 1, (S)-4,5-Dihydro-2-[2-hydroxy-3-(3,6,9-trioxadecyloxy)phenyl]-4-methyl-4-thiazolecarboxylate magnesium hydroxide]
dose dependence of mean Cmax and AUC ([1]; 3-16 mg/kg): linear across the dose range
total fraction of administered drug excreted in urine over 24 hour, range ([1]; across all 4 dose levels): 19-83%
total fraction of administered drug excreted in urine over 24 hour, average ([1]; all 4 dose levels, standard deviation 18%): 59%
half-life ([1]; oral, 11 of 12 subjects, 3-16 mg/kg, read-out: median t1/2 (converted)): 7.32 h
half-life ([1]; oral, 11 of 12 subjects, 3-16 mg/kg, read-out: t1/2, range): 3.77 to 35.2 h
half-life ([1]; oral, 11 of 12 subjects, 3-16 mg/kg, standard deviation 10.1, read-out: mean t1/2 (converted)): 12.8 h
AUC(0-t) ([1]; po, 3 mg/kg, single oral dose 3 mg/kg, read-out: AUC0-24): 12100 ng·h/mL
AUC(0-t) ([1]; po, 3 mg/kg, single oral dose 3 mg/kg, read-out: AUC0-t): 12100 ng·h/mL
half-life ([1]; po, 3 mg/kg, single oral dose 3 mg/kg, mean, read-out: t1/2 (converted)): 4.4 h
AUC(0-t) ([1]; po, 6 mg/kg, single oral dose 6 mg/kg, read-out: AUC0-24): 24700 ng·h/mL
AUC(0-t) ([1]; po, 6 mg/kg, single oral dose 6 mg/kg, read-out: AUC0-t): 25300 ng·h/mL
half-life ([1]; po, 6 mg/kg, single oral dose 6 mg/kg, mean, read-out: t1/2 (converted)): 15.4 h
AUC(0-t) ([1]; po, 10 mg/kg, single oral dose 10 mg/kg, read-out: AUC0-24): 42700 ng·h/mL
AUC(0-t) ([1]; po, 10 mg/kg, single oral dose 10 mg/kg, read-out: AUC0-t): 43400 ng·h/mL
half-life ([1]; po, 10 mg/kg, single oral dose 10 mg/kg, mean, read-out: t1/2 (converted)): 16.1 h
AUC(0-t) ([1]; po, 16 mg/kg, single oral dose 16 mg/kg, read-out: AUC0-24): 74600 ng·h/mL
AUC(0-t) ([1]; po, 16 mg/kg, single oral dose 16 mg/kg, read-out: AUC0-t): 75400 ng·h/mL
half-life ([1]; po, 16 mg/kg, single oral dose 16 mg/kg, mean, read-out: t1/2 (converted)): 16.1 h
AUC(0-inf) ([1]; single oral dose 3 mg/kg, mean): 12200 ng·h/mL
Cmax ([1]; single oral dose 3 mg/kg): 5410 ng/mL
Tmax ([1]; single oral dose 3 mg/kg): 1.33 h
AUC(0-inf) ([1]; single oral dose 6 mg/kg, mean): 26600 ng·h/mL
Cmax ([1]; single oral dose 6 mg/kg): 12200 ng/mL
Tmax ([1]; single oral dose 6 mg/kg): 0.92 h
AUC(0-inf) [1, 3]: 43600 ng·h/mL
Cmax ([1]; single oral dose 10 mg/kg): 16600 ng/mL
Tmax ([1]; single oral dose 10 mg/kg): 1.17 h
AUC(0-inf) [1, 4]: 75600 ng·h/mL
Cmax ([1]; single oral dose 16 mg/kg): 34800 ng/mL
Tmax ([1]; single oral dose 16 mg/kg): 1 h
kel ([1]; single oral dose 3 mg/kg, mean): 0.1595 h⁻¹
kel ([1]; single oral dose 6 mg/kg, mean): 0.0469 h⁻¹
kel [1, 3]: 0.0562 h⁻¹
kel [1, 4]: 0.0779 h⁻¹
Serum Ferritin Change from Baseline to Week 72, Geometric Mean ([2]; 16 mg/kg/d group): 1.14
Serum Ferritin Change from Baseline to Week 72, Mean ([2]; 16 mg/kg/d group): 233.21
Serum Ferritin Change from Baseline to Week 72, Median ([2]; 16 mg/kg/d group): 231.50
Serum Ferritin Week 72, Geometric Mean ([2]; 16 mg/kg/d group): 2418.49
Serum Ferritin Week 72, Mean ([2]; 16 mg/kg/d group): 2873.93
Serum Ferritin Week 72, Median ([2]; 16 mg/kg/d group): 2544.50
Serum Ferritin Change from Baseline to Week 72, Geometric Mean ([2]; 32 mg/kg/d group): 0.89
Serum Ferritin Change from Baseline to Week 72, Mean ([2]; 32 mg/kg/d group): −150.82
Serum Ferritin Change from Baseline to Week 72, Median ([2]; 32 mg/kg/d group): −436.00
Serum Ferritin Week 72, Geometric Mean ([2]; 32 mg/kg/d group): 2441.03
Serum Ferritin Week 72, Mean ([2]; 32 mg/kg/d group): 3026.82
Serum Ferritin Week 72, Median ([2]; 32 mg/kg/d group): 2396.00
Serum Ferritin Change from Baseline to Week 72, Geometric Mean ([2]; Total): 0.99
Serum Ferritin Change from Baseline to Week 72, Mean ([2]; Total): 22.61
Serum Ferritin Change from Baseline to Week 72, Median ([2]; Total): −56.00
Serum Ferritin Week 72, Geometric Mean ([2]; Total): 2430.83
Serum Ferritin Week 72, Mean ([2]; Total): 2957.77
Serum Ferritin Week 72, Median ([2]; Total): 2398.00

From patent US8993606B2, “Oral formulations for treating metal overload” (FerroKin BioSciences, Inc., priority 2011, dated 2015)
